Test system: Ctenocephalides felis
Experiment: Systemic activity against adult cat fleas (Ctenocephalides felis)
Assay type: functional

| SMILES | Effective concentration, systemic activity against adult cat fleas |
| --- | --- |
| C=C(C)[C@H]1C(=O)c2c3c(cc4c5c(n1c24)[C@@]1(C)C(CC[C@H]2[C@](C)(/C=C/C=C(\C)C(=O)NC(C)(C)C(=O)OC)[C@@H](O)CC[C@@]21C)C5)C1=CC(C)(C)OC(C)(C)C1[C@@H]3O (stereo not given in full) | 1 p.p.m. |
| C=C(C)[C@H]1C(=O)c2c3c(cc4c5c(n1c24)[C@@]1(C)C(CC[C@H]2[C@](C)(/C=C/C=C(\C)C(=O)OCCO)[C@@H](O)CC[C@@]21C)C5)C1=CC(C)(C)OC(C)(C)C1[C@@H]3O (stereo not given in full) | ~1 p.p.m. |
| C=C(C)[C@H]1C(=O)c2c3c(cc4c5c(n1c24)[C@@]1(C)C(CC[C@H]2[C@](C)(/C=C/C=C(\C)C(=O)O)[C@@H](O)CC[C@@]21C)C5)C1=CC(C)(C)OC(C)(C)C1[C@@H]3O (stereo not given in full) [NOD ACID A] | 1 p.p.m. |
| C=C(C)[C@H]1C(=O)c2c3c(cc4c5c(n1c24)[C@@]1(C)C(CC[C@H]2[C@](C)(/C=C/C=C(\C)C(=O)NC)[C@@H](O)CC[C@@]21C)C5)C1=CC(C)(C)OC(C)(C)C1[C@@H]3O (stereo not given in full) | ~0.1 p.p.m. |
| C=C(C)[C@H]1C(=O)c2c3c(cc4c5c(n1c24)[C@@]1(C)C(CC[C@H]2[C@](C)(/C=C/C=C(\C)C(=O)NCC(N)=O)[C@@H](O)CC[C@@]21C)C5)C1=CC(C)(C)OC(C)(C)C1[C@@H]3O (stereo not given in full) | 10 p.p.m. |
| C=C(C)[C@H]1C(=O)c2c3c(cc4c5c(n1c24)[C@@]1(C)C(CC[C@H]2[C@](C)(/C=C/C=C(\C)C(N)=O)[C@@H](O)CC[C@@]21C)C5)C1=CC(C)(C)OC(C)(C)C1[C@@H]3O (stereo not given in full) | ~0.1 p.p.m. |
| C=C(C)[C@H]1C(=O)c2c3c(cc4c5c(n1c24)[C@@]1(C)C(CC[C@H]2[C@](C)(/C=C/C=C(\C)C(=O)N(CC)CCC)[C@@H](O)CC[C@@]21C)C5)C1=CC(C)(C)OC(C)(C)C1[C@@H]3O (stereo not given in full) | ~0.1 p.p.m. |
| C=C(C)[C@H]1C(=O)c2c3c(cc4c5c(n1c24)[C@@]1(C)C(CC[C@H]2[C@](C)(/C=C/C=C(\C)C(=O)N4CCCCC4)[C@@H](O)CC[C@@]21C)C5)C1=CC(C)(C)OC(C)(C)C1[C@@H]3O (stereo not given in full) | ~1 p.p.m. |
| C=C(C)[C@H]1C(=O)c2c3c(cc4c5c(n1c24)[C@@]1(C)C(CC[C@H]2[C@](C)(/C=C/C=C(\C)C(=O)N(C)C)[C@@H](O)CC[C@@]21C)C5)C1=CC(C)(C)OC(C)(C)C1[C@@H]3O (stereo not given in full) | ~0.1 p.p.m. |
| C=C(C)[C@H]1C(=O)c2c3c(cc4c5c(n1c24)[C@@]1(C)C(CC[C@H]2[C@](C)(/C=C/C=C(\C)C(=O)SCC)[C@@H](O)CC[C@@]21C)C5)C1=CC(C)(C)OC(C)(C)C1[C@@H]3O (stereo not given in full) | >1 p.p.m. |
| C=C(C)[C@H]1C(=O)c2c3c(cc4c5c(n1c24)[C@@]1(C)C(CC[C@H]2[C@](C)(/C=C/C=C(\C)C(=O)NC(C)(C)C(=O)N(C)C)[C@@H](O)CC[C@@]21C)C5)C1=CC(C)(C)OC(C)(C)C1[C@@H]3O (stereo not given in full) | 0.01 p.p.m. |
| C=C(C)[C@H]1C(=O)c2c3c(cc4c5c(n1c24)[C@@]1(C)C(CC[C@H]2[C@](C)(/C=C/C=C(\C)C(=O)NCCC(=O)O)[C@@H](O)CC[C@@]21C)C5)C1=CC(C)(C)OC(C)(C)C1[C@@H]3O (stereo not given in full) | >10 p.p.m. |
| C=C(C)[C@H]1C(=O)c2c3c(cc4c5c(n1c24)[C@@]1(C)C(CC[C@H]2[C@](C)(/C=C/C=C(\C)C(=O)Nc4ccc(F)cc4)[C@@H](O)CC[C@@]21C)C5)C1=CC(C)(C)OC(C)(C)C1[C@@H]3O (stereo not given in full) | 1 p.p.m. |
| C=C(C)[C@H]1C(=O)c2c3c(cc4c5c(n1c24)[C@@]1(C)C(CC[C@H]2[C@](C)(/C=C/C=C(\C)C(=O)OCCCO)[C@@H](O)CC[C@@]21C)C5)C1=CC(C)(C)OC(C)(C)C1[C@@H]3O (stereo not given in full) | 10 p.p.m. |
| C=C(C)[C@H]1C(=O)c2c3c(cc4c5c(n1c24)[C@@]1(C)C(CC[C@H]2[C@](C)(/C=C/C=C(\C)C(=O)OCCOCCO)[C@@H](O)CC[C@@]21C)C5)C1=CC(C)(C)OC(C)(C)C1[C@@H]3O (stereo not given in full) | 0.1 p.p.m. |
| C=C(C)[C@H]1C(=O)c2c3c(cc4c5c(n1c24)[C@@]1(C)C(CC[C@H]2[C@](C)(/C=C/C=C(\C)C(=O)N4CCN(C)CC4)[C@@H](O)CC[C@@]21C)C5)C1=CC(C)(C)OC(C)(C)C1[C@@H]3O (stereo not given in full) | 1 p.p.m. |
| C=C(C)[C@H]1C(=O)c2c3c(cc4c5c(n1c24)[C@@]1(C)C(CC[C@H]2[C@](C)(/C=C/C=C(\C)C(=O)N4CCN(S(C)(=O)=O)CC4)[C@@H](O)CC[C@@]21C)C5)C1=CC(C)(C)OC(C)(C)C1[C@@H]3O (stereo not given in full) [NODULISPORAMIDE] | ~0.01 p.p.m. |
| C=C(C)[C@H]1C(=O)c2c3c(cc4c5c(n1c24)[C@@]1(C)C(CC[C@H]2[C@](C)(C=O)[C@@H](O)CC[C@@]21C)C5)C1=CC(C)(C)OC(C)(C)C1[C@@H]3O (stereo not given in full) | ~10 p.p.m. |
| C=C(C)[C@H]1C(=O)c2c3c(cc4c5c(n1c24)[C@@]1(C)C(CC[C@H]2[C@](C)(/C=C/C=C(\C)C(=O)NCCO)[C@@H](O)CC[C@@]21C)C5)C1=CC(C)(C)OC(C)(C)C1[C@@H]3O (stereo not given in full) | 0.5 p.p.m. |
| C=C(C)[C@H]1C(=O)c2c3c(cc4c5c(n1c24)[C@@]1(C)C(CC[C@H]2[C@](C)(/C=C/C=C(\C)C(=O)N4CCN(C(=O)OCC)CC4)[C@@H](O)CC[C@@]21C)C5)C1=CC(C)(C)OC(C)(C)C1[C@@H]3O (stereo not given in full) | 0.1 p.p.m. |
| C=C(C)[C@H]1C(=O)c2c3c(cc4c5c(n1c24)[C@@]1(C)C(CC[C@H]2[C@](C)(/C=C/C=C(\C)C(=O)OC)[C@@H](O)CC[C@@]21C)C5)C1=CC(C)(C)OC(C)(C)C1[C@@H]3O (stereo not given in full) | ~10 p.p.m. |
| C=C(C)[C@H]1C(=O)c2c3c(cc4c5c(n1c24)[C@@]1(C)C(CC[C@H]2[C@](C)(/C=C/C=C(\C)C(=O)NCCCCCC)[C@@H](O)CC[C@@]21C)C5)C1=CC(C)(C)OC(C)(C)C1[C@@H]3O (stereo not given in full) | ~0.5 p.p.m. |
| C=C(C)[C@H]1C(=O)c2c3c(cc4c5c(n1c24)[C@@]1(C)C(CC[C@H]2[C@](C)(/C=C/C=C(\C)C(=O)NCc4ccc(Cl)cc4)[C@@H](O)CC[C@@]21C)C5)C1=CC(C)(C)OC(C)(C)C1[C@@H]3O (stereo not given in full) | 0.1 p.p.m. |
| C=C(C)[C@H]1C(=O)c2c3c(cc4c5c(n1c24)[C@@]1(C)C(CC[C@H]2[C@](C)(/C=C/C=O)[C@@H](O)CC[C@@]21C)C5)C1=CC(C)(C)OC(C)(C)C1[C@@H]3O (stereo not given in full) | ~10 p.p.m. |
| C=C(C)[C@H]1C(=O)c2c3c(cc4c5c(n1c24)[C@@]1(C)C(CC[C@H]2[C@](C)(/C=C/C=C(\C)C(=O)NCCN(C)C)[C@@H](O)CC[C@@]21C)C5)C1=CC(C)(C)OC(C)(C)C1[C@@H]3O (stereo not given in full) | 10 p.p.m. |

— ChEMBL document CHEMBL1132786, “Chemical modification of nodulisporic acid A: preliminary structure-activity relationships” (2000)
